According to patent publication US12606529B2, “Sulfur and amide tropolone inhibitors of nucleotidyl transferases and uses therefor” (Saint Louis University, priority 2019, dated 2026):
Values after ≈ are worked out from the molar mass of the structure shown.

Tests used:
[1] = biological target: T1, human RNaseH1 (Homo sapiens, UniProt O60930); assay: Biochemical inhibition of human RNaseH1 activity; conditions: Table 2 amides; read-out: HuRH1 IC50
T1 sequence (O60930 1-286): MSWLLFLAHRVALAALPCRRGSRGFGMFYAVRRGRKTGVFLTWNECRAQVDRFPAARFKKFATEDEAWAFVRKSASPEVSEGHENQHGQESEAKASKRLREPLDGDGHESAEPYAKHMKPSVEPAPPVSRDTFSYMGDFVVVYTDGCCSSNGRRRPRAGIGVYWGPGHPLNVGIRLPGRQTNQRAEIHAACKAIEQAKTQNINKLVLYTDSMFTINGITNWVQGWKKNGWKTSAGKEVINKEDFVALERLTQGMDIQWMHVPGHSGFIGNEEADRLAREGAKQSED
Procedure: Biochemical inhibition of human RNaseH1 activity. Quantitative inhibition of the human RNaseH1 in the biochemical assays was assessed using a molecular beacon assay as described previously (Edwards et al., 2017). Recombinant human RNaseH 1 (0.3 μg) was incubated with 100 nM RNA:DNA substrate, 50 mM HEPES pH 8.0, 100 mM NaCl, 2 mM Tris(2-carboxyethyl)phosphine hydrochloride (TCEP), 0.05% Tween20, 5 units of RNaseOut, test compounds (0 to 500 μM), and 5% DMSO in a 100 μL reaction volume. The substrate was formed by annealing a complementary RNA oligonucleotide to a hairpin DNA oligonucleotide to hold the hairpin DNA oligonucleotide in an open conformation. The DNA oligonucleotide has a 5′ fluorescein reporter and a 3′ black hole quencher. When the RNA is degraded from the substrate the DNA oligonucleotide closes to form a hairpin structure, decreasing in signal intensity. Reactions were initiated with 5 mM MgCl2 and fluorescence was read using a Synergy HTS multi-mode plate reader at 37° C. Alternatively, the HBV RNaseH version used was MBP-HRHgtCΔ5, a genotype C isolate which lacks the C-terminal 35 amino acids of the HBV RNaseH domain that are predicted to be unstructured. Quantitative inhibition of the human RNaseH1 in biochemical assays was assessed using a FRET-based RNaseH assay under conditions previously reported for an RNaseH molecular beacon assay (Edwards et al., 2017). […] Cleavage of the RNA strand released the fluorescein from quenching, increasing fluorescence. Reactions were monitored for 90 min at 37° C. in a plate reader and initial reaction rates were calculated. Reactions contained escalating concentrations of the compounds.

[2] = system: HSV-1; assay: Anti-HSV-1 replication assay (Vero cells, plaque titer); assay type: cell-based, herpes simplex virus 1; conditions: Human alphaherpesvirus 1, Vero, Table 2 amides; for log reduction at 5 µM: compound at 5 μM, read-out: HSV-1 suppression 5 μM; for log reduction at 5 µM / log reduction at 1 µM: values separated by / are repeats; for log reduction at 1 µM: compound at 1 μM, read-out: HSV-1 suppression 1 μM
[3] = system: C. neoformans var. grubii, KN99; assay: C. neoformans growth inhibition assay (limiting dilution); assay type: cell-based, Cryptococcus neoformans; conditions: Cryptococcus neoformans, 48 h, Table 2 amides; 48 h, 35° C., tested 0.19 to 50 μM; read-out: C. neoformans MIC80
Procedure: Cell types used for C. neoformans studies. All inhibition assays were performed with C. neoformans var. grubii, KN99 (serotype A, MAT). Two clinical strains of C. neoformans var. grubii, serotype A, were provided by Tamara Doering and Andre Spec. […] Cells were diluted to OD650 0.001 in YNB-02 02 (0.67% yeast nitrogen base, 0.2% dextrose, pH 7.0 with 50 mM MOPs)+1% DMSO prior to addition to the plates for the inhibition assays.
C. neoformans growth inhibition assays. Compounds were tested in a limiting dilution assay with a starting optical density (at 650 nm) of 0.001 in YNB-02 plus 1% DMSO. Cells plus compound were incubated in 96-well clear round bottom plates covered with a Breath-easy® membrane without shaking for 48 hours at 35° C. Before measuring cell density, plates were shaken on a microtiter plate shaker at 900 rpm for 3 minutes to resuspend cells and optical density was measured at 650 nm. […] Each assay was done in triplicate and all values are the average of two or more independent assays. The data are presented as the average cell density as a percent of DMSO-only treated cells. MICs are reported as the minimal concentration needed to inhibit 80% of C. neoformans growth relative to vehicle-treated controls.

[4] = in vitro; conditions: human, HepDES19 cells
Procedure: Cells used for toxicity and HBV studies. […] Cells were maintained in Dulbecco's modified Eagle's medium (DMEM)/F12 media supplemented with 10% fetal bovine serum (FBS) and 1% penicillin/streptomycin (P/S) with 1 μg/mL tetracycline. Synchronized expression of HBV pgRNA was induced by removing tetracycline from the culture medium.
Cytotoxicity Assays. Qualitative assessments of cytotoxicity were done visually by inspecting the cells in the primary screening assays. […] The next day the compounds were added at 0.78 to 100 μM in a final concentration of 1% (v/v) DMSO, and the cells were incubated for 24 hours under conditions identical to those employed for the viral replication inhibition assays. Mitochondrial toxicity was measured by incubating the cells with 0.25 mg/mL thiazolyl blue tetrazolium bromide (MTT, SigmaAldrich Chemical Co.), the cultures were incubated for 60 mM, metabolites were solubilized in acidic isopropanol, and absorbance was read at 570 nm. CC50 values were calculated by non-linear curve fitting using GraphPad Prism using the three-parameter variable-response log(inhibitor)-versus-response algorithm with the bottom value set to zero.

| SMILES | IC50 [1] [µM] | log reduction at 5 µM [2] | MIC80 [3] [µM] | CC50 at 24 h ([4]; CC50 (μM), Table 2 amides, MTT) [µM] | log reduction at 1 µM [2] | log reduction at 0.33 µM ([2]; compound at 0.33 μM, read-out: HSV-1 suppression 0.33 μM) | CC50 at 24 h ([4]; CC50) [µM] |
| --- | --- | --- | --- | --- | --- | --- | --- |
| Cc1cc(O)c(=O)c(O)cc1C(=O)N1CCS(=O)(=O)C1 [compound 709] | 84.8 ± 6.7 | -0.27 | 50 (≈ 15 µg/mL) | 19.5 ± 6.7 | – | – | – |
| Cc1cc(O)c(=O)c(O)cc1C(=O)N1CCN(C(=O)N(c2ccccc2)c2ccccc2)CC1 [compound 1020] | 12.9 ± 7.3 | – | 8 (≈ 3.68 µg/mL) | 7.8 ± 3.7 | – | – | – |
| Cc1cc(O)c(=O)c(O)cc1C(=O)N1CCN(c2oc(-c3ccco3)nc2C#N)CC1 [compound 803] | 36.3 ± 4 | – | 32 (≈ 13.5 µg/mL) | 23.7 ± 22.9 | – | – | – |
| Cc1cc(O)c(=O)c(O)cc1C(=O)N1CCN(C(=O)OC(C)(C)C)CC1 [compound 873] | 74.7 ± 23.1 | 0.2 | 20 (≈ 7.29 µg/mL) | 19.5 ± 8.7 | -0.148 | – | – |
| COc1ccc(CNC(=O)c2cc(O)c(=O)c(O)cc2C)cc1 [compound 806] | 61.4 ± 15.9 | – | 4.6 (≈ 1.45 µg/mL) | 15.9 ± 6.9 | – | – | – |
| CCCCNC(=O)c1cc(O)c(=O)c(O)cc1C [compound 1039] | 219 ± 87.6 | – | 12 (≈ 3.02 µg/mL) | 8.7 ± 2.8 | – | – | – |
| Cc1cc(O)c(=O)c(O)cc1C(=O)NC(CC(C)C)C(=O)OC(C)(C)C (stereo not shown) [compound 870] | 289 ± 296 | 0.811 | 5 (≈ 1.83 µg/mL) | 9.1 ± 2.7 | – | – | – |
| Cc1cc(O)c(=O)c(O)cc1C(=O)N1CCN(S(=O)(=O)c2ccsc2)CC1 [compound 917] | 30.7 ± 15.8 | – | 50 (≈ 20.5 µg/mL) | 8.9 ± 4.1 | – | – | – |
| Cc1cc(O)c(=O)c(O)cc1C(=O)NCCCc1ccccc1 [compound 708] | 267 ± 11.7 | 0.04 | 18 (≈ 5.64 µg/mL) | 22.6 ± 12.8 | – | – | – |
| Cc1cc(O)c(=O)c(O)cc1C(=O)Nc1ccccc1OCc1ccccc1 [compound 835] | 725 ± 427 | 5.23 | 4.5 (≈ 1.7 µg/mL) | 10.3 ± 5.2 | – | – | – |
| Cc1cc(O)c(=O)c(O)cc1C(=O)Nc1ccccc1Cc1ccccc1 [compound 834] | 37.2 ± 17.2 | 1.8 | 9 (≈ 3.25 µg/mL) | 16.4 ± 11.2 | – | – | – |
| Cc1cc(O)c(=O)c(O)cc1C(=O)Nc1cccc(Cc2ccccc2)c1 [compound 799] | 713 ± 496 | 3.88 | 2 (≈ 0.723 µg/mL) | 5.3 ± 3.1 | 0.411 | 0.0848 | – |
| Cc1cc(O)c(=O)c(O)cc1C(=O)N1CCN(C(=O)c2ccc([N+](=O)[O-])c3nonc23)CC1 [compound 920] | 40.2 ± 39.7 | – | 50 (≈ 22.8 µg/mL) | 19.3 ± 14.6 | – | – | – |
| Cc1cc(O)c(=O)c(O)cc1C(=O)N1CCN(C(=O)C2CCCCC2)CC1 [compound 872] | 93 ± 53.3 | 0.643 | 20 (≈ 7.49 µg/mL) | 14.4 ± 3.7 | -0.158 | – | – |
| Cc1cc(O)c(=O)c(O)cc1C(=O)Nc1ccccc1 [compound 389] | 78.4 ± 47.2 | 0.43 | 5.3 (≈ 1.44 µg/mL) | 21.2 ± 9.5 | – | – | > 20 |
| Cc1cc(O)c(=O)c(O)cc1C(=O)NCC1COC(C)(C)O1 (stereo not shown) [compound 808] | 71.9 ± 12 | – | 9 (≈ 2.78 µg/mL) | 14.9 ± 8.6 | – | – | – |
| Cc1cc(O)c(=O)c(O)cc1C(=O)NC(CCC(=O)OC(C)(C)C)C(=O)OC(C)(C)C (stereo not shown) [compound 867] | 675 ± 563 | 3.49 | 4.3 (≈ 1.88 µg/mL) | 5.2 ± 1.3 | – | – | – |
| Cc1cc(O)c(=O)c(O)cc1C(=O)NCC1CCCCN1C(=O)OC(C)(C)C (stereo not shown) [compound 810] | 41.5 ± 7.2 | – | 4.5 (≈ 1.77 µg/mL) | 10.9 ± 11.2 | – | – | – |
| Cc1cc(O)c(=O)c(O)cc1C(=O)NCc1ccccc1 [compound 388] | 166 ± 104 | 0.05 | 9 (≈ 2.57 µg/mL) | 19.8 ± 3 | – | – | – |
| Cc1cc(O)c(=O)c(O)cc1C(=O)NCCNS(=O)(=O)c1ccc(C(F)(F)F)cc1 [compound 874] | 52.6 | -0.15 | 14 (≈ 6.25 µg/mL) | 17.7 ± 6.7 | – | – | – |
| Cc1cc(O)c(=O)c(O)cc1C(=O)N1CCN(c2ccc(C(F)(F)F)cc2)CC1 [compound 919] | – | – | 2.5 (≈ 1.02 µg/mL) | 5.5 ± 1.9 | – | – | – |
| Cc1cc(O)c(=O)c(O)cc1C(=O)NCC1CCOC1 (stereo not shown) [compound 1018] | 129 ± 123 | – | 50 (≈ 14 µg/mL) | 41.2 ± 33.4 | – | – | – |
| Cc1cc(O)c(=O)c(O)cc1C(=O)NCC1CCN(C(=O)OC(C)(C)C)CC1 [compound 805] | 77 ± 30.8 | – | 9 (≈ 3.53 µg/mL) | 19.5 ± 10.8 | – | – | – |
| COC(=O)[C@H](CC(C)C)NC(=O)c1cc(O)c(=O)c(O)cc1C [compound 794] | 48.1 ± 15.4 | – | 9 (≈ 2.91 µg/mL) | 14.7 ± 9.6 | – | – | – |
| CCS(=O)(=O)N1CCN(C(=O)c2cc(O)c(=O)c(O)cc2C)CC1 [compound 802] | 76.5 ± 46.9 | – | 50 (≈ 17.8 µg/mL) | 27.1 ± 31.2 | – | – | – |
| COC(=O)[C@H](Cc1ccccc1)NC(=O)c1cc(O)c(=O)c(O)cc1C [compound 795] | 43.5 ± 14.8 | – | 9 (≈ 3.22 µg/mL) | 12.7 ± 5.5 | – | – | – |
| COC(=O)[C@H](Cc1c[nH]c2ccccc12)NC(=O)c1cc(O)c(=O)c(O)cc1C [compound 797] | 44 ± 27.1 | – | 9 (≈ 3.57 µg/mL) | 13.9 ± 13.3 | – | – | – |
| COC(=O)[C@@H](NC(=O)c1cc(O)c(=O)c(O)cc1C)C(C)C [compound 793] | 178 ± 46.6 | – | 18 (≈ 5.57 µg/mL) | 18.3 ± 9.8 | – | – | – |
| Cc1cc(O)c(=O)c(O)cc1C(=O)NCc1ccc(N2CCCC2)cc1 [compound 1019] | 383 ± 471 | – | 4.5 (≈ 1.59 µg/mL) | 10.7 ± 6 | – | – | – |
| Cc1cc(O)c(=O)c(O)cc1C(=O)NCc1cccs1 [compound 801] | 833 ± 289 | – | 50 (≈ 14.6 µg/mL) | 61.1 ± 22.8 | – | – | – |
